Patent US11298363B2, “Triazolobenzazepines as vasopressin V1a receptor antagonists” (RICHTER GEDEON NYRT., priority 2017, dated 2022)
Where a name gives a salt, the structure may show the parent alone.

Experiments:
[1] = molecular target: T1, human vasopressin V1a receptor (Homo sapiens, UniProt P37288); test: Functional assay on human vasopressin V1a receptor expressing cell line (intracellular Ca2+ fluorescence); assay type: cell-based; details: for IC50: 1321N1 cells, (Arg8)-vasopressin at EC80, read-out: IC50 (nM) on hV1a cell line; for inhibition at 1 µM: read-out: % at 1 μM, printed in the column IC50 (nM) on hV1a cell line
T1 sequence (P37288 whole entry): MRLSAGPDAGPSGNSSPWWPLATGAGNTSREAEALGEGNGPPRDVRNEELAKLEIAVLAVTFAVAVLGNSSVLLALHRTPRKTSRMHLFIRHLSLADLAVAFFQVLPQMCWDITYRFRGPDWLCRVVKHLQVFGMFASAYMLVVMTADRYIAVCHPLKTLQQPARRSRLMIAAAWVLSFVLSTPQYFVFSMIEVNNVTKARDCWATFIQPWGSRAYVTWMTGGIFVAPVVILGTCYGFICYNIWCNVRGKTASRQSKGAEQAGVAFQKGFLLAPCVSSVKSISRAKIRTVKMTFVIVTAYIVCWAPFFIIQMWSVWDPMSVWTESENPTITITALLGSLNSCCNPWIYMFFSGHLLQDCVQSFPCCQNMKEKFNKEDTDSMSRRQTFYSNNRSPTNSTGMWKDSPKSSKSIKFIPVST
Experimental: Functional Assay to Test Compounds on Human Vasopressin V1a Receptor Expressing Cell Line
The ordinary secondary messenger pathway of the measured GPCR receptor was used, the endogenous Gq-associated system.
Using 30,000 cells/plate, compounds were measured on 96-well plates. The buffer composition of the measurements was the following (expressed in mM): 140 NaCl, 5 KCl, 2 CaCl2), 2 MgCl2, 10 glucose, 10 HEPES (4-(2-hydroxyethyl)-1-piperazine-ethanesulfonic acid), 2 probenecid, pH=7.4. FLIPR Calcium 5 kit (Molecular Devices) was used as fluorescent dye, the medium was not removed prior to filling with the dye and the cells were not washed out either before or after. The incubation was performed at room temperature, the final concentration of DMSO was 1%. The materials to be measured were administered in 15 to 20 minutes pretreatment, at least two parallels of each compound in each concentration was measured.
Fluorescence signal was used to determine the intracellular Ca^2+ level, the reader was FlexStation II96. […] The fluorescence signal was logged in every 1.4 seconds for 1 minute. The reference compounds used were the following: (Arg^8)-vasopressin as agonist at concentration of EC80, determined for each plate, and relcovaptan as antagonist at 1 μM. The % of inhibition at each concentration and the IC50 value of the compounds were determined where a concentration line was also measured.
The total AVP concentration-response curve was recorded on each plate. The effect of compounds measured was expressed by percentage of relative inhibition compared to control response. […] The average IC50 values were calculated from at least three independent measurements in all cases.

[2] = molecular target: T1, human vasopressin V1a receptor; test: Human vasopressin V1a receptor binding assay; details: 1321N1 cell membranes, [3H]vasopressin; read-out: Ki (nM) on hV1a cell line
Experimental: Human Vasopressin V1a Receptor Binding Assay
Cells were suspended in preparative buffer (50 mM Tris, 1 mM EDTA, 0.1 mM PMSF) and homogenized with glass homogenizing potter. To separate the raw membrane fraction two consecutive centrifugation procedures (40,000 g for 20 minutes at 4° C.) were executed, then the membrane was taken into the preparatory buffer during a final washing step, it was divided into aliquots which were stored at −80° C. until the time of measurement.
To determine the final affinity value, the results of at least two independent experiments were taken into account.
Non-specific binding values were determined in the presence of unlabeled 1.2×10^−6 M (Arg^8)-vasopressin. Samples were incubated in a total volume of 0.33 ml for 60 minutes at 27° C. Membrane-bound and free ligands were separated by filtration through a 0.5% polyethyleneimine-impregnated UniFilter® GF/B™. After drying the filter plates, 40 μl Microscint-20 (Packard) scintillation cocktail was added to the samples. Finally, radioactivity was measured using MicroBeta^2 Microplate Counter (Perkin Elmer).
During fitting, the asymptotes are not fixed. The K values (inhibition constant) are given with Cheng-Prusoff equation Ki=IC50/[1+(L/KD)] wherein [L] is the radioligand concentration used in the experiment and [KD] is the affinity of the radioactively labelled ligand for the given receptor. The KD is determined beforehand using the Scatchard curve.

Row | IC50 [1] | Ki [2] | inhibition at 1 µM [1] | Structure (SMILES)
1 | 1.2 nM | 0.4 nM |  | O=C([C@H]1CC[C@H](c2nnc3n2-c2ccc(Cl)cc2CC2(C3)OCCO2)CC1)N1CCCC1 [Example 70, [Trans-4-(8′-chloro-4′H,6′H-spiro[1,3-dioxolane-2,5′-[1,2,4]triazolo[4,3-a][1]benzazepine]-1′-yl)cyclohexyl](pyrrolidin-1-yl)methanone]
2 | 22 nM | 14 nM |  | O=C1Cc2cc(Cl)ccc2-n2c(nnc2[C@H]2CC[C@H](C(F)(F)F)CC2)C1 [Example 71, 8-chloro-1-[trans-4-(trifluoromethyl)cyclohexyl]-4H-[1,2,4]triazolo[4,3-a][1]benzazepin-5(6H)-one]
3 | 21 nM | 7.5 nM |  | OC1Cc2cc(Cl)ccc2-n2c(nnc2[C@H]2CC[C@H](C(F)(F)F)CC2)C1 (stereo partly drawn) [Example 72, 8-chloro-1-[trans-4-(trifluoromethyl)cyclohexyl]-5,6-dihydro-4H-[1,2,4]triazolo[4,3-a][1]benzazepine-5-ol]
4 | 3.3 nM | 1.6 nM |  | CN1C[C@]2(CC[C@H](c3nnc4n3-c3ccc(Cl)cc3CC3(C4)OCCO3)CC2)OC1=O [Example 73, (cis)-8-(8′-chloro-4′H,6′H-spiro[1,3-dioxolane-2,5′-[1,2,4]triazolo[4,3-a][1]benzazepine]-1′-il)-3-methyl-1-oxa-3-azaspiro[4.5]decan-2-one]
5 | 10.4 nM | 3.7 nM |  | CN1C[C@]2(CC[C@@H](c3nnc4n3-c3ccc(Cl)cc3CC3(C4)OCCO3)CC2)OC1=O [Example 75, (trans)-8-(8′-chloro-4′H, 6′H-spiro[1,3-dioxolane-2,5′-[1,2,4]triazolo[4,3-a][1]benzazepin]-1′-yl)-3-methyl-1-oxa-3-azaspiro[4.5]decan-2-one]
6 | 2.2 nM | 1.1 nM |  | CN([C@H]1Cc2cc(Cl)ccc2-n2c(nnc2[C@H]2CC[C@H](Oc3ccccn3)CC2)C1)S(C)(=O)=O [Example 76, N-{(5S)-8-chloro-1-[trans-4-(pyridin-2-yloxy)cyclohexyl]-5,6-dihydro-4H-[1,2,4]triazolo[4,3-a][1]benzazepin-5-yl}-N-methylmethanesulfonamide]
7 | 18 nM | 1.9 nM |  | CCN[C@H]1Cc2cc(Cl)ccc2-n2c(nnc2[C@H]2CC[C@H](Oc3ccccn3)CC2)C1 [Example 77, (5S)-8-chloro-N-ethyl-1-[trans-4-(pyridin-2-yloxy)cyclohexyl]-5,6-dihydro-4H-[1,2,4]triazolo[4,3-a][1]benzazepine-5-amine]
8 | 12 nM | 1.7 nM |  | CN[C@H]1Cc2cc(Cl)ccc2-n2c(nnc2[C@H]2CC[C@H](Oc3ccccn3)CC2)C1 [Example 78, (5S)-8-chloro-N-methyl-1-[trans-4-(pyridin-2-yloxy)cyclohexyl]-5,6-dihydro-4H-[1,2,4]triazolo[4,3-a][1]benzazepine-5-amine]
9 | 1860 nM | 71 nM |  | Clc1ccc2c(c1)CC1(Cc3nnc(C4CN(c5ncccn5)C4)n3-2)OCCO1 [Example 79]
10 | 520 nM | 58 nM |  | O=C(N[C@H]1Cc2cc(Cl)ccc2-n2c(nnc2[C@H]2CC[C@H](Oc3ccccn3)CC2)C1)c1ccc(F)cc1 [Example 80]
11 | 1.4 nM | 0.2 nM |  | FC(F)(F)[C@H]1CC[C@H](c2nnc3n2-c2ccc(Br)cc2CC2(C3)OCCO2)CC1 [Example 81, 8′-bromo-1′-[trans-4-(trifluoromethyl)cyclohexyl]-4′H,6′H-spiro[1,3-dioxolane-2,5′-[1,2,4]triazolo[4,3-a][1]benzazepine]]
12 | 445 nM | 29 nM |  | CC(C)NC1Cc2cc(C#N)ccc2-n2c(nnc2[C@H]2CC[C@H](Oc3ccccn3)CC2)C1 (stereo partly drawn) [Example 82, 5-(propan-2-ylamino)-1-[trans-4-(pyridin-2-yloxy)cyclohexyl]-5,6-dihydro-4H-[1,2,4]triazolo[4,3-a][1]benzazepin-8-carbonitrile trifluoroacetate]
13 | 44 nM | 4.4 nM |  | Fc1ccc(CN[C@H]2Cc3cc(Cl)ccc3-n3c(nnc3[C@H]3CC[C@H](Oc4ccccn4)CC3)C2)cc1 [Example 83, (S-8-chloro-N-4-fluorobenzyl)-1-[trans-4-pyridin-2-loxcyclohexyl]-5,6-dihydro-4H-[1,2,4]triazolo[4,3-a][1]benzazepine-5-amine]
14 | 72 nM | 11.4 nM |  | N#Cc1ccc2c(c1)CC1(Cc3nnc([C@H]4CC[C@H](C(F)(F)F)CC4)n3-2)OCCO1 [Example 84, 1′-[trans-4-(trifluoromethyl)cyclohexyl]-4′H,6′H-spiro[1,3-dioxolane-2,5′-[1,2,4]triazolo[4,3-a][1]benzazepine]-8′-carbonitrile]
15 | 1.8 nM | 0.4 nM |  | O=C([C@H]1CC[C@H](c2nnc3n2-c2ccc(Br)cc2CC2(C3)OCCO2)CC1)N1CCCCC1 [Example 85, [Trans-4-(8′-bromo-4′H,6′H-spiro[1,3-dioxolane-2,5′-[1,2,4]triazolo[4,3-a][1]benzazepin]-1′-yl)cyclohexyl](piperidin-1-yl)methanone]
16 | 12 nM | 2.2 nM |  | COC(=O)[C@H]1CC[C@H](c2nnc3n2-c2ccc(Br)cc2CC(=O)C3)CC1 [Example 86, methyl trans-4-(8-bromo-5-oxo-5,6-dihydro-4H-[1,2,4]triazolo[4,3-a][1]benzazepin-1-yl)cyclohexane carboxylate]
17 | 57 nM | 2.5 nM |  | O=C1Cc2cc(Br)ccc2-n2c(nnc2[C@H]2CC[C@H](C(=O)N3CCCCC3)CC2)C1 [Example 87, 8-bromo-1-[trans-4-(piperidin-1-ylcarbonyl)cyclohexyl]-4H-[1,2,4]triazolo[4,3-a][1]benzazepin-5(6H)-one]
18 | 152 nM | 10.2 nM |  | N#Cc1ccc2c(c1)CC1(Cc3nnc([C@H]4CC[C@H](C(=O)N5CCCCC5)CC4)n3-2)OCCO1 [Example 90, 1′-[trans-4-(piperidin-1-ylcarbonyl)cyclohexyl]-4′H,6′H-spiro[1,3-dioxolane-2,5′-[1,2,4]triazolo[4,3-a][1]benzazepin]-8′-carbonitrile]
19 | 45 nM | 9.1 nM |  | O=C1Cc2cc(Br)ccc2-n2c(nnc2[C@H]2CC[C@H](C(F)(F)F)CC2)C1 [Example 91, 8-bromo-1-[trans-4-(trifluoromethyl)cyclohexyl]-4H-[1,2,4]triazolo[4,3-a][1]benzazepin-5(6H)-one]
20 | 16 nM | 1.9 nM |  | O=C([C@H]1CC[C@H](c2nnc3n2-c2ccc(Br)cc2CC(O)C3)CC1)N1CCCCC1 (stereo partly drawn) [Example 92, [Trans-4-(8-bromo-5-hydroxy-5,6-dihydro-4H-[1,2,4]triazolo[4,3-a][1]benzazepin-1-yl)cyclohexyl](piperidin-1-yl)methanone]
21 | 16 nM | 3.2 nM |  | OC1Cc2cc(Br)ccc2-n2c(nnc2[C@H]2CC[C@H](C(F)(F)F)CC2)C1 (stereo partly drawn) [Example 93]
22 | 23 nM | 2 nM |  | Clc1ccc2c(c1)CC1(Cc3nnc(N4CCC(N5CCCCC5)CC4)n3-2)OCCO1 [Example 94, 1′-(1,4′-bipiperidin-1′-yl)-8′-chloro-4′H,6′H-spiro[1,3-dioxolane-2,5′-[1,2,4]triazolo[4,3-a][1]benzazepine]]
23 |  | 547 nM | 22% | CC(C)(C)OC(=O)NC1Cc2cc(Cl)ccc2-n2c(nnc2N2CCC(N3CCCCC3)CC2)C1 (stereo not drawn) [Example 95, Tert-butyl [1-(1,4′-bipiperidin-1′-yl)-8-chloro-5,6-dihydro-4H-[1,2,4]triazolo[4,3-a][1]benzazepin-5-yl]carbaminate]
24 |  | 122 nM | 34% | CN(Cc1ccc(F)cc1)[C@H]1Cc2cc(Cl)ccc2-n2c(nnc2[C@H]2CC[C@H](Oc3ccccn3)CC2)C1 [Example 97, (5S)-8-chloro-N-(4-fluorobenzyl)-N-methyl-1-[trans-4-(pyridin-2-yloxy)cyclohexyl]-5,6-dihydro-4H-[1,2,4]triazolo[4,3-a][1]benzazepin-5-amine]
